Measurements from ChEMBL document CHEMBL1151027, “Inhibition of human immunodeficiency virus-1 protease by a C2-symmetrical phosphinic acid amide” (Bioorg Med Chem Lett, 1994).

How the values were obtained:
[1] = target: Human immunodeficiency virus type 1 protease (Human immunodeficiency virus 1, UniProt Q72874); experiment: Inhibitory activity if the compound was determined against HIV protease
[2] = (§1) Effective concentration required to inhibit HIV replication in peripheral blood mononuclear cells (PBL); assay type: functional, Homo sapiens
[3] = as §1; assay type: functional; settings: Homo sapiens

Row | SMILES | IC50 [1] [nM] | EC50 ([2]; Homo sapiens) [nM] | EC50 [2] [nM] | EC50 [3] [nM]
1 | CC(C)[C@H](NC(=O)[C@H](Cc1cccc2ccccc12)CS(=O)(=O)C(C)(C)C)C(=O)NCP(N)(=O)CNC(=O)[C@@H](NC(=O)[C@H](Cc1cccc2ccccc12)CS(=O)(=O)C(C)(C)C)C(C)C | 5.5 | > 10000 |  | 
2 | CC(C)[C@H](NC(=O)[C@H](Cc1cccc2ccccc12)CS(=O)(=O)C(C)(C)C)C(=O)NCP(=O)(CNC(=O)[C@@H](NC(=O)[C@H](Cc1cccc2ccccc12)CS(=O)(=O)C(C)(C)C)C(C)C)NN | 8.5 | > 10000 |  | 
3 | COP(=O)(CNC(=O)[C@@H](NC(=O)[C@H](Cc1cccc2ccccc12)CS(=O)(=O)C(C)(C)C)C(C)C)CNC(=O)[C@@H](NC(=O)[C@H](Cc1cccc2ccccc12)CS(=O)(=O)C(C)(C)C)C(C)C | 950 | > 10000 |  | 
4 | CC(C)[C@H](NC(=O)[C@H](Cc1cccc2ccccc12)CS(=O)(=O)C(C)(C)C)C(=O)NCP(=O)(O)CNC(=O)[C@@H](NC(=O)[C@H](Cc1cccc2ccccc12)CS(=O)(=O)C(C)(C)C)C(C)C | 1.1 | > 10000 |  | 
5 | CC(C)[C@H](NC(=O)[C@H](Cc1cccc2ccccc12)CS(=O)(=O)C(C)(C)C)C(=O)N[C@H](Cc1ccccc1)P(=O)(O)[C@@H](Cc1ccccc1)NC(=O)[C@@H](NC(=O)[C@H](Cc1cccc2ccccc12)CS(=O)(=O)C(C)(C)C)C(C)C | 85 | > 10000 |  | 
6 | CC(C)[C@H](NC(=O)[C@H](Cc1cccc2ccccc12)CS(=O)(=O)C(C)(C)C)C(=O)N[C@H](Cc1ccccc1)P(N)(=O)[C@@H](Cc1ccccc1)NC(=O)[C@@H](NC(=O)[C@H](Cc1cccc2ccccc12)CS(=O)(=O)C(C)(C)C)C(C)C | 1 |  | 100 | 
7 | CC(C)[C@H](NC(=O)[C@H](Cc1cccc2ccccc12)CS(=O)(=O)C(C)(C)C)C(=O)NC(Cc1ccccc1)P(=O)(O)C(Cc1ccccc1)NC(=O)[C@@H](NC(=O)[C@H](Cc1cccc2ccccc12)CS(=O)(=O)C(C)(C)C)C(C)C (single isomer, unassigned) | 0.5 |  |  | > 10000
8 | CC(C)[C@H](NC(=O)[C@H](Cc1cccc2ccccc12)CS(=O)(=O)C(C)(C)C)C(=O)NC(Cc1ccccc1)P(N)(=O)C(Cc1ccccc1)NC(=O)[C@@H](NC(=O)[C@H](Cc1cccc2ccccc12)CS(=O)(=O)C(C)(C)C)C(C)C (single isomer, unassigned) | 250 |  | > 10000 | 
